Molecules are shown by their SMILES.

In the assay the test system is Candida albicans. Description: In vitro antimycotic activity of compound against Candida albicans was determined as -log MIC90 compound to that of -log MIC90 bifonazole. In kind it is functional.
With `COc1ccc(C(Cc2ccc(Cl)cc2)n2cnnc2)cc1` (stereo unspecified), the Ratio was 1.8.

Regarding `Cc1ccc(C(c2ccn(-c3ccc(Cl)cc3)c2)n2ccnc2)cc1` (stereo unspecified), the Ratio worked out at 0.

With `COc1ccc(C(Cc2ccccc2-n2cccc2)n2ccnc2)cc1` (stereo unspecified), the Ratio worked out at 0.9.

For `COc1ccc(C(Cc2cccc(Cl)c2)n2ccnc2)cc1` (stereo unspecified), the Ratio was determined as 1.5.

Turning to `O=[N+]([O-])c1ccc(C(c2ccccc2)n2ccnc2)cc1` (stereo unspecified), the Ratio is 0.3.

Regarding `Fc1ccc(C(c2ccn(-c3ccccc3)c2)n2ccnc2)cc1` (stereo unspecified), the Ratio amounted to 0.3.

As to `Clc1ccc(-n2ccc(C(c3ccccc3)n3ccnc3)c2)cc1` (stereo unspecified), the Ratio is 0.3.

Take `Cn1cc(-c2ccccc2)c(C(c2cccc3ccccc23)n2ccnc2)c1` (stereo unspecified): the Ratio stood at 1.5.

In the case of `Cc1ccc(C(c2ccc(-n3cccc3)cc2)n2ccnc2)cc1` (stereo unspecified), the Ratio is 0.9.

Consider `Clc1ccc(-c2c[nH]cc2C(c2ccccc2)n2ccnc2)cc1` (stereo unspecified), for which the Ratio was 0.3.

For `Cn1cc(-c2ccccc2)c(C(c2ccc3ccccc3c2)n2ccnc2)c1` (stereo unspecified), the Ratio is given as 2.4.

Turning to `Cc1ccc(C(c2ccn(-c3ccccc3)c2)n2ccnc2)cc1` (stereo unspecified), the Ratio is given as 0.

As to `Cn1cc(-c2ccccc2)c(C(c2ccccc2)n2ccnc2)c1` (stereo unspecified), the Ratio is 0.6.

Turning to `c1ccc(C(c2ccc(-n3cccc3)cc2)n2ccnc2)cc1` (stereo unspecified), the Ratio is recorded as 0.6.

Regarding `CCC(c1ccc(Cl)cc1)C(c1ccc(OC)cc1)n1cncn1` (stereo unspecified), the Ratio came to 1.5.

For the compound `Cc1ccc(-c2cn(Cc3ccc(Cl)cc3Cl)cc2C(c2ccccc2)n2ccnc2)cc1` (stereo unspecified), the Ratio came out at 1.8.

Regarding `COc1ccc(C(Cc2ccc(Cl)cc2Cl)C(c2ccc(OC)cc2)n2ccnc2)cc1` (stereo unspecified), the Ratio stood at 1.5.

Consider `Fc1ccc(C(c2ccn(-c3ccc(F)cc3)c2)n2ccnc2)cc1` (stereo unspecified), for which the Ratio stood at 0.

Regarding `COc1ccc(C(Cc2ccc(F)cc2)n2ccnc2)cc1` (stereo unspecified), the Ratio is 1.2.

With `COc1ccc(C(Cc2ccc(Cl)cc2)n2cncn2)cc1` (stereo unspecified), the Ratio is recorded as 1.5.

As for `c1ccc(C(c2ccn(-c3ccccc3)c2)n2ccnc2)cc1` (stereo unspecified), the Ratio was 0.6.

Consider `Cc1ccc(C(c2ccc([N+](=O)[O-])cc2)n2ccnc2)cc1` (stereo unspecified), for which the Ratio was determined as 0.3.

As to `Fc1ccc(-c2c[nH]cc2C(c2ccccc2)n2ccnc2)cc1` (stereo unspecified), the Ratio was 0.

Regarding `COc1ccc(C(Cc2ccc(Cl)cc2Cl)n2ccnc2)cc1` (stereo unspecified), the Ratio stood at 0.6.

As for `Fc1ccc(C(c2ccn(-c3ccc(Cl)cc3)c2)n2ccnc2)cc1` (stereo unspecified), the Ratio was 0.3.

For the compound `COc1ccc(C(Cc2ccc(Cl)cc2)n2ccnc2)cc1` (stereo unspecified), the Ratio is on record as 0.6.

In the case of `COc1ccc(C(C(Cc2ccc(Cl)cc2Cl)c2ccc(Cl)cc2)n2cncn2)cc1` (stereo unspecified), the Ratio was 1.8.

As to `O=[N+]([O-])c1ccc(C(c2ccc(Cl)cc2)n2ccnc2)cc1` (stereo unspecified), the Ratio was 0.

Turning to `Clc1ccc(-c2cn(Cc3ccc(Cl)cc3Cl)cc2C(c2ccccc2)n2ccnc2)cc1` (stereo unspecified), the Ratio amounted to 1.8.

On to `Clc1ccc(C(c2ccn(-c3ccc(Cl)cc3)c2)n2ccnc2)cc1` (stereo unspecified), for which the Ratio was 0.6.

For the compound `Cc1ccc(C(c2ccc(NC(=O)c3ccc(Cl)cc3Cl)cc2)n2ccnc2)cc1` (stereo unspecified), the Ratio turned out to be 0.

For `Fc1ccc(-n2ccc(C(c3ccc(Cl)cc3)n3ccnc3)c2)cc1` (stereo unspecified), the Ratio is reported as 0.3.

Consider `Cc1ccc(C(c2ccn(-c3ccc(F)cc3)c2)n2ccnc2)cc1` (stereo unspecified), for which the Ratio turned out to be 0.3.

Turning to `COc1ccc(C(C(Cc2ccc(Cl)cc2Cl)c2ccc(Cl)cc2)n2ccnc2)cc1` (stereo unspecified), the Ratio stood at 1.2.

With `CCC(c1ccc([N+](=O)[O-])cc1)C(c1ccc(OC)cc1)n1ccnc1` (stereo unspecified), the Ratio is 0.9.

With `Nc1ccc(C(c2ccccc2)n2ccnc2)cc1` (stereo unspecified), the Ratio amounted to 0.3.

For the compound `COc1ccc(C(Cc2ccc([N+](=O)[O-])cc2)n2ccnc2)cc1` (stereo unspecified), the Ratio came to 1.5.

With `COc1ccc(C(Cc2ccccc2F)n2ccnc2)cc1` (stereo unspecified), the Ratio was found to be 1.8.

As to `COc1ccc(CC(c2ccc(OC)cc2)n2ccnc2)cc1` (stereo unspecified), the Ratio was 0.9.

Consider `c1ccc(-c2c[nH]cc2C(c2cccc3ccccc23)n2ccnc2)cc1` (stereo unspecified), for which the Ratio stood at 0.9.

With `Cn1cc(-c2ccc(F)cc2)c(C(c2ccccc2)n2ccnc2)c1` (stereo unspecified), the Ratio is reported as 0.6.

Take `c1ccc(-c2ccc(C(c3ccccc3)n3ccnc3)cc2)cc1` (stereo unspecified) [BIFONAZOLE]: the Ratio was found to be 0.

In the case of `Cc1ccc(-c2cn(C)cc2C(c2ccccc2)n2ccnc2)cc1` (stereo unspecified), the Ratio is recorded as 0.6.

Take `Cn1cc(-c2ccc(Cl)cc2)c(C(c2ccccc2)n2ccnc2)c1` (stereo unspecified): the Ratio was determined as 0.

As to `COc1ccc(-c2cn(Cc3ccc(Cl)cc3Cl)cc2C(c2ccccc2)n2ccnc2)cc1` (stereo unspecified), the Ratio was 1.8.

For `COc1ccc(C(Cc2ccc(N)cc2)n2ccnc2)cc1` (stereo unspecified), the Ratio is listed as 0.3.

Consider `COc1ccc(CC(c2ccc(OC)cc2)n2cnnc2)cc1` (stereo unspecified), for which the Ratio is on record as 1.8.

Turning to `COc1ccc(C(Cc2ccccc2[N+](=O)[O-])n2ccnc2)cc1` (stereo unspecified), the Ratio was found to be 2.1.

In the case of `COc1ccc(C(Cc2cccc(F)c2)n2ccnc2)cc1` (stereo unspecified), the Ratio came to 1.8.

Consider `COc1ccc(C(Cc2ccccc2Cl)n2ccnc2)cc1` (stereo unspecified), for which the Ratio is listed as 1.8.

For the compound `Fc1ccc(-n2ccc(C(c3ccccc3)n3ccnc3)c2)cc1` (stereo unspecified), the Ratio stood at 0.6.

In the case of `Clc1ccc(C(c2ccc(-n3cccc3)cc2)n2ccnc2)cc1` (stereo unspecified), the Ratio was determined as 0.3.

`Clc1ccc(Cn2cc(-c3ccccc3)c(C(c3ccccc3)n3ccnc3)c2)c(Cl)c1` (stereo unspecified): the Ratio is on record as 1.5.

`c1ccc(-c2c[nH]cc2C(c2ccc3ccccc3c2)n2ccnc2)cc1` (stereo unspecified): the Ratio amounted to 0.9.

For `COc1ccc(C(Cc2cccc(-n3cccc3)c2)n2ccnc2)cc1` (stereo unspecified), the Ratio was 1.8.

For the compound `CCC(c1ccc(Cl)cc1)C(c1ccc(OC)cc1)n1cnnc1` (stereo unspecified), the Ratio is given as 1.8.

The values above are taken from ChEMBL document CHEMBL1129521, “Molecular modeling of azole antifungal agents active against Candida albicans. 1. A comparative molecular field analysis study” (1996).
